Test results reported in patent publication US20230286946A1, “DIFLUOROMETHYL-PYRIDIN-2-YL TRIAZOLES” (Boehringer Ingelheim International GmbH, priority 2020, published 2023).

Experiments:
α5ß2 γ2 GABAA Receptor = molecular target: T1, α5ß2 γ2 GABAA Receptor (Homo sapiens, UniProt P18507+P31644); assay: Assay B: in vitro evaluation of modulation of α5ß2γ2 GABAA receptor, two-electrode voltage clamp in oocytes; type: cell-based; details: for EC50: co-application with 0.5 μM GABA, oocytes, read-out: Assay B: GABAA α 5 β 3 γ 2 EC50
T1 sequence (P31644 32-462): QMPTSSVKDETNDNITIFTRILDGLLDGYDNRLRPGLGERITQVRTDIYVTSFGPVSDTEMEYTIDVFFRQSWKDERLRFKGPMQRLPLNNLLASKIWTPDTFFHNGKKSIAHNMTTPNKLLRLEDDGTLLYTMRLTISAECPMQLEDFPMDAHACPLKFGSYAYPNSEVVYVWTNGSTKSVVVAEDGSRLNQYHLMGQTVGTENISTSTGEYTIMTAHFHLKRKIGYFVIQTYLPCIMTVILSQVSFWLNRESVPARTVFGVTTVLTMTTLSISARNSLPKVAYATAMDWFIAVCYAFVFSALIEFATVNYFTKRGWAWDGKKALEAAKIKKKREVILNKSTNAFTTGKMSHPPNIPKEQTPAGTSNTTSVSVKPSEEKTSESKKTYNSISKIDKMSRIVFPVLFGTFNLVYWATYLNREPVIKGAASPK
T1 sequence (P18507 40-376 limits assumed): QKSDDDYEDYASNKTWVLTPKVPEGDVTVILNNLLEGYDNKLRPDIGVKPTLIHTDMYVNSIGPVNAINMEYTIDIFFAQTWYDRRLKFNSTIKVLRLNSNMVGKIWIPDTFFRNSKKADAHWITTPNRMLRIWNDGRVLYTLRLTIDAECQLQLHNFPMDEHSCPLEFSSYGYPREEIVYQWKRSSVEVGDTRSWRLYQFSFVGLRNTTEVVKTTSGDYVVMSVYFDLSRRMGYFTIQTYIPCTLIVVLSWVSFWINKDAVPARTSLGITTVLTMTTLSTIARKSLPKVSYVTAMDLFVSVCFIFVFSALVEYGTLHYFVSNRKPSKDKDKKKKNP
Procedure: Assay B: In Vitro Evaluation of Modulation of α5ß2 γ2 GABAA Receptor.
Modulatory efficacy of compounds of formular (I) is determined electrophysiological recordings in oocytes using the two-electrode voltage clamp (TEVC) technique. Oocytes are injected with cRNA for human GABAA receptor subunits α5, ß2 and γ2 in a 3:1:3 ratio and modulatory efficacy is evaluated by co-applications with a submaximal EC5-20 GABA concentration (0.5 μM) termed GABA control. As a standard, the compounds are tested in five concentrations (3.16, 0.316, 0.0316, 0.00316 and 0.000316 μM) on each oocyte starting with the lowest concentration. Background subtracted peak current amplitudes are normalized to the respective GABAcontrol current, converted to % change and depicted +/−S.E.M. as a function of increasing compound concentrations. Plotted datapoints are fitted to the empirical Hill equation using non-linear regression. 95% confidence intervals for maximal efficacy (Bottom) and potency (Log EC50) are derived from this fitting routine.

human MDR1 P-gp = assay: Assessment of efflux in MDCK cells transfected with the human MDR1 gene; type: in vitro ADME, canine; details: dog, pH 7.4, 37° C.; for Papp A→B: apical-to-basal, read-out: MDCK-PGP A-B; for efflux ratio: read-out: MDCK-PGP Efflux ratio [PEBA/PEAB]
Procedure: Assessment of efflux in Madin-Darby canine kidney (MDCK) cells transfected with the human MDR1 gene to assess brain penetration (Drug Metabolism and Disposition February 2008, 36 (2) 268-275; DOI: https://doi.org/10.1124/dmd.107.017434)
Apparent permeability coefficients (PE) of the compounds across the MDCK-MDR1 cell monolayers are measured (pH 7.4, 37° C.) in apical-to-basal (AB) and basal-to-apical (BA) transport direction. AB permeability (PEAB) represents drug absorption from the blood into the 35 brain and BA permeability (PEBA) drug efflux from the brain back into the blood via both passive permeability as well as active transport mechanisms mediated by efflux and uptake transporters that are expressed on the MDCK-MDR1 cells, predominantly by the overexpressed human MDR1 P-gp. The compounds are assigned to permeability/absorption classes by comparison of the AB permeabilities with the AB permeabilities of reference compounds with known in vitro permeability and oral absorption in the human. Identical or similar permeabilities in both transport directions indicate passive permeation, vectorial permeability points to additional active transport mechanisms. Higher PEBA than PEAB indicates the involvement of active efflux mediated by MDR1 P-gp. Active transport is concentration-dependently saturable.
MDCK-MDR1 cells (1-2×10e5 cells/1 cm2 area) are seeded on filter inserts (Costar transwell polycarbonate or PET filters, 0.4 μm pore size) and cultured (DMEM) for 7 days. Subsequently, the MDR1 expression is boosted by culturing the cells with 5 mM sodium butyrate in full medium for 2 days. Compounds are dissolved in appropriate solvent (like DMSO, 1-20 mM stock solutions). Stock solutions are diluted with HTP-4 buffer (128.13 mM NaCl, 5.36 mM KCl, 1 mM MgSO4, 1.8 mM CaCl2, 4.17 mM NaHCO3, 1.19 mM Na2HPO4×7H2O, 0.41 mM NaH2PO4×H2O, 15 mM HEPES, 20 mM glucose, 0.25% BSA, pH 7.4) to prepare the transport solutions (0.1-300 μM compound, final DMSO <=0.5%). The transport solution (TL) is applied to the apical or basolateral donor side for measuring A-B or B-A permeability (3 filter replicates), respectively. The receiver side contains the same buffer as the donor side. Samples are collected at the start and end of experiment from the donor and at various time intervals for up to 2 hours also from the receiver side for concentration measurement by HPLC-MS/MS or scintillation counting. Sampled receiver volumes are replaced with fresh receiver solution.

[1] = Metabolic stability in human liver microsomes (Human MST); type: in vitro ADME; details: pH 7.6, pooled human liver microsomes, 37° C., read-out: Human MST t½
Procedure: Assessment of Metabolic Stability in Human Liver Microsomes (Human MST) The metabolic stability of the compounds according to the invention may be investigated as follows: The metabolic degradation of the test compound is assayed at 37° C. with pooled human liver microsomes. The final incubation volume of 100 μL per time point contains TRIS buffer pH 7.6 at room temperature (0.1 M), MgCl2 (5 mM), microsomal protein (1 mg/mL) and the test compound at a final concentration of 1 μM. Following a short pre-incubation period at 37° C., the reactions are initiated by addition of beta-nicotinamide adenine dinucleotide phosphate, reduced form (NADPH, 1 mM), and terminated by transferring an aliquot into solvent after different time points. After centrifugation (10000 g, 5 min), an aliquot of the supernatant is assayed by LCMS/MS for the amount of parent compound. The half-life (t1/2) is determined by the slope of the semi-logarithmic plot of the concentration-time profile.

Row | SMILES | Assay B: GABAA α 5 β 3 γ 2 Emax vs GABA (α5ß2 γ2 GABAA Receptor) [%] | EC50 (α5ß2 γ2 GABAA Receptor) [nM] | Papp A→B (human MDR1 P-gp) [×10⁻⁶ cm/s] | efflux ratio (human MDR1 P-gp) | half-life at 1 μM [1] [h]
1 | Cc1ncnn1-c1ccc(OCc2c(-c3ccc(C(F)F)cn3)nnn2C)nn1 [Example 48, 3-({4-[5-(difluoromethyl)pyridin-2-yl]-1-methyl-1H-1,2,3-triazol-5-yl}methoxy)-6-(5-methyl-1H-1,2,4-triazol-1-yl)pyridazine] | -13.2 | 78.9 | 69 | 0.8 | > 2.17
2 | Cc1nnn(-c2ccc(C(F)F)cn2)c1COc1ccc(-c2cn[nH]c2)nn1 [Example 4] | -22.3 | 93 | 57 | 0.8 | 0.667
3 | Cc1nnn(-c2ccc(C(F)F)cn2)c1COc1ccc(-c2cnccn2)nn1 [Example 56, 3-({1-[5-(difluoromethyl)pyridin-2-yl]-4-methyl-1H-1,2,3-triazol-5-yl}methoxy)-6-(pyrazin-2-yl)pyridazine] | -17.7 | 14.5 | 58 | 0.6 | > 2.17
4 | Cc1ncc(-c2ccc(OCc3c(C)nnn3-c3ccc(C(F)F)cn3)nn2)o1 [Example 18] | -28.7 | 23.3 | 71 | 0.6 | > 2.17
5 | Cc1nnn(-c2ccc(C(F)F)cn2)c1COc1ccc(-c2ccc(=O)n(C)c2)nn1 [Example 1, 5-[6-({1-[5-(difluoromethyl)pyridin-2-yl]-4-methyl-1H-1,2,3-triazol-5-yl}methoxy)pyridazin-3-yl]-1-methyl-1,2-dihydropyridin-2-one] | -24.9 | 41.3 | 31 | 1.8 | > 2.17
6 | CCn1cc(-c2ccc(OCc3c(-c4ccc(C(F)F)cn4)nnn3C)nn2)cn1 [Example 22] | -14.9 | 26.9 | 40 | 1.1 | > 2.17
7 | Cc1nnn(-c2ccc(C(F)F)cn2)c1COc1ccc(-n2cc(C#N)cn2)nn1 [Example 37] | -25.3 | 37.3 | 59 | 0.4 | 2.15

Molecules with a lower EC50 (α5ß2 γ2 GABAA Receptor), results first:

Row | Assay B: GABAA α 5 β 3 γ 2 Emax vs GABA (α5ß2 γ2 GABAA Receptor) [%] | EC50 (α5ß2 γ2 GABAA Receptor) [nM] | Papp A→B (human MDR1 P-gp) [×10⁻⁶ cm/s] | efflux ratio (human MDR1 P-gp) | half-life at 1 μM [1] [h] | SMILES
8 | -16 | 2 | 18 | 2.7 | > 2.17 | Cn1nnc(-c2ccc(C(F)F)cn2)c1COc1ccc(-n2cnc(C#N)c2)nn1 [Example 52]
9 | -32.3 | 11.6 | 15 | 2 | > 2.17 | Cc1nnn(-c2ccc(C(F)F)cn2)c1COc1ccc(-c2c[nH]c(=O)c(F)c2)nn1 [Example 20]
10 | -24.7 | 6.6 | 41 | 1.4 | > 2.17 | Cc1cc(-c2ccc(OCc3c(C)nnn3-c3ccc(C(F)F)cn3)nn2)cnn1 [Example 3]
11 | -33.2 | 1 | 51 | 1 | > 2.17 | Cc1nnn(-c2ccc(C(F)F)cn2)c1COc1ccc(-c2ccnnc2)nn1 [Example 17]
